Experimental data from patent publication US10815197B2, “N-sulfonyl benzamides as voltage-gated sodium channel inhibitors” (SHANGHAI HAIYAN PHARMACEUTICAL TECHNOLOGY CO., LTD., priority 2016, dated 2020).

Tests used:
hNav1.5 = biological target: T1, hNav1.5 (Homo sapiens, UniProt Q14524); assay: Manual patch clamp experiment hNav1.5 (HEK-hNav1.5 stable cell line); assay type: cell-based; details: read-out: Nav1.5(IC50/nM)
T1 construct: host or cells: HEK
Text: Assay 1: Manual Patch Clamp Experiment of Sodium Ion (hNav1.7, hNav1.5 and hNaV1.8) and Calcium Ion (hCav3.2) Channels
hNav1.7, hNav1.5 Manual Patch Clamp Experiment:
Patch voltage clamp electrophysiology allows for the direct measurement and quantification of current block of voltage-gated sodium channels (NaV's), and allows the determination of the time and voltage-dependence of block which has been interpreted as differential binding to the resting, open and inactivated states of the sodium channel to reflect the compound's inhibitory or activating effects (Hille, B., Journal of General Physiology (1977), 69: 497-515).
Representative compounds of the present invention were subject to a manual patch clamp experiment and the purpose of this study was to test the effect of compounds on this ion channel current on a stable cell line transfected with a specific ion channel using a manual patch clamp method. The used stable cell lines CHO-hNav1.7 and HEK-hNav1.5 were from Genionics and WuXi Apptec (Shanghai) respectively.
Manual patch clamp experimental program is as follows: […]
The time intervals of these two voltage stimulation programs were 10 s. The inhibitory effect of the compound was calculated by the change of the current before and after dosing, the IC50 value was fitted by the Hill equation.

[1] = biological target: T2, hERG potassium ion channel (Homo sapiens, UniProt Q12809); assay: Effect on hERG potassium ion channel (CHO hERG cells, manual patch clamp); assay type: cell-based; details: final 10 μM test concentration, read-out: hERG inhibitory concentration IC50
T2 construct: host or cells: CHO
Procedure: Assay 2: Effect on hERG Potassium Ion Channel 2.1 Cell Culture 2.1.1 Cells used in this experiment were CHO cell lines (supplied by Sophion Bioscience, Denmark) which were hERG cDNA transfectant and stably express hERG channels, and cell progeny was P15. Cells were cultured in medium containing the following ingredients Invitrogen): Ham's F12 medium, 10% (v/v) inactivated fetal bovine serum, […] Geneticin. 2.1.2 CHO hERG cells were grown in Petri dishes containing the above medium and cultured in an incubator containing 5% CO2 at 37° C. CHO hERG cells were transferred onto round glass plates in Petri dishes, and grown on the same culture medium under culture conditions as above for 24 h to 48 h prior to the electrophysiological experiments, and the density of CHO hERG cells on each round glass plate needs to meet the requirements that the vast majority of cells are independent and individual. 2.2 Experimental Solution The following solutions (supplied by Sophion) were used for electrophysiological recording as shown in Table 3. The reagents used in this test were provided by Sigma. [table] 2.3 Electrophysiological Recording System In this experiment, whole-cell current recording was performed using a manual patch clamp system (HEKA EPC-10 signal amplification and digital conversion system, purchased from HEKA Electronic, Germany). The round glass slide, surface of which CHO hERG cells were grown on was placed in an electrophysiological recording slot under an inverted microscope. Extracellular fluid was used for steady perfision in recording slot (approximately 1 ml per minute). A conventional whole-cell patch clamp current recording technique was used in the experiment. Unless otherwise specified, experiments were performed at normal room temperature (25° C.). Cell clamping was at −80 mV. Cell clamping voltage depolarized to +20 mV to activate hERG potassium channel, clamping to −50 mV after 5 sec to eliminate inactivation and generate tail currents. The tail current peak was used as a value for hERG current. The hERG potassium current recorded in the above steps could be superfused for test drug after the steady perfusion state of the extracellular fluid in the recording slot is stabilized until the inhibition of the hERG current by the drug reached a steady state. The coincidence of the last three consecutive current recording lines was generally used as a criterion to determine whether the state is stable. After reaching a steady state, perfused with extracellular fluid until hERG current returned to the value before the drug adding. One or more drugs could be tested on a single cell, or multiple concentrations of the same drug, but needed to be rinsed with extracellular fluid between different drugs. […] 2.4 Compound Treatment and Dilution The compound was firstly dissolved in DMSO to a concentration of 10 mM and then the compound was diluted 1000-fold to the final […] test concentration using an extracellular solution. The final concentration of DMSO in the compound test solution was equal to 0.1%. […] All stock solutions and test solutions were subjected to regular 5-10 minute sonication and shaken to ensure complete dissolution of the compound. 2.5 Data Analysis The test data were analyzed by the data analysis software provided by HEKA Patchmaster (V2x73.2), Microsoft Excel and Graphpad Prism 5.0.

T2 sequence (Q12809 whole entry): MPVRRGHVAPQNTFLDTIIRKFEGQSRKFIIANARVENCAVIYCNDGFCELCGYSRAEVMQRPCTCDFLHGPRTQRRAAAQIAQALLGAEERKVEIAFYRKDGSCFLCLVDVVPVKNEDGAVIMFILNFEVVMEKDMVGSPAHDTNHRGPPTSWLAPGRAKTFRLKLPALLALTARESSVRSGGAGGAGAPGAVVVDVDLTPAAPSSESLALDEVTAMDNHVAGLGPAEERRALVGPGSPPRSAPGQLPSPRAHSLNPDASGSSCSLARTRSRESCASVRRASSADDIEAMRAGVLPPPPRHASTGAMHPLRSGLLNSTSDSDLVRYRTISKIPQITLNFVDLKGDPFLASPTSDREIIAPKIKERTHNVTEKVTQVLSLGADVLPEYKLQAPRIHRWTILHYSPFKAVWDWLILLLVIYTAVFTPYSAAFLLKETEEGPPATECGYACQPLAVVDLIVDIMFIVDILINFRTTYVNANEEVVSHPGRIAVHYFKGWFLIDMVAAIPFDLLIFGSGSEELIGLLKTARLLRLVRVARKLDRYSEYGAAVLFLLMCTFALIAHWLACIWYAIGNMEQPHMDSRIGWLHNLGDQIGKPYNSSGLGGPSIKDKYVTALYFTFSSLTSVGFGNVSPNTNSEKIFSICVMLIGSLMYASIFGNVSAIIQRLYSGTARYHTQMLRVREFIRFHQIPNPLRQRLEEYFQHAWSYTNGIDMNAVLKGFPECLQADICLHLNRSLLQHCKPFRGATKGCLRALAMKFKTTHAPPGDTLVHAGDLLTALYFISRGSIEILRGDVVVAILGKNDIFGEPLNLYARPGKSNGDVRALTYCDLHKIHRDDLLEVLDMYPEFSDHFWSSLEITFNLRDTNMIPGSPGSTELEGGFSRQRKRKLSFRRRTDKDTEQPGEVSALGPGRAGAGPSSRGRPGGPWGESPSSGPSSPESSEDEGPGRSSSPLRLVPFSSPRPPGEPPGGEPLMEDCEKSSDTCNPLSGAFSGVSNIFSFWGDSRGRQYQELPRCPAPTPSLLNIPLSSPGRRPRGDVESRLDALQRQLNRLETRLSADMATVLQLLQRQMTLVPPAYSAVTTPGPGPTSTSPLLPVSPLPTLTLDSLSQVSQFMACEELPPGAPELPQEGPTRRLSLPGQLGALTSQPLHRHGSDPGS
T1 sequence (Q14524 whole entry): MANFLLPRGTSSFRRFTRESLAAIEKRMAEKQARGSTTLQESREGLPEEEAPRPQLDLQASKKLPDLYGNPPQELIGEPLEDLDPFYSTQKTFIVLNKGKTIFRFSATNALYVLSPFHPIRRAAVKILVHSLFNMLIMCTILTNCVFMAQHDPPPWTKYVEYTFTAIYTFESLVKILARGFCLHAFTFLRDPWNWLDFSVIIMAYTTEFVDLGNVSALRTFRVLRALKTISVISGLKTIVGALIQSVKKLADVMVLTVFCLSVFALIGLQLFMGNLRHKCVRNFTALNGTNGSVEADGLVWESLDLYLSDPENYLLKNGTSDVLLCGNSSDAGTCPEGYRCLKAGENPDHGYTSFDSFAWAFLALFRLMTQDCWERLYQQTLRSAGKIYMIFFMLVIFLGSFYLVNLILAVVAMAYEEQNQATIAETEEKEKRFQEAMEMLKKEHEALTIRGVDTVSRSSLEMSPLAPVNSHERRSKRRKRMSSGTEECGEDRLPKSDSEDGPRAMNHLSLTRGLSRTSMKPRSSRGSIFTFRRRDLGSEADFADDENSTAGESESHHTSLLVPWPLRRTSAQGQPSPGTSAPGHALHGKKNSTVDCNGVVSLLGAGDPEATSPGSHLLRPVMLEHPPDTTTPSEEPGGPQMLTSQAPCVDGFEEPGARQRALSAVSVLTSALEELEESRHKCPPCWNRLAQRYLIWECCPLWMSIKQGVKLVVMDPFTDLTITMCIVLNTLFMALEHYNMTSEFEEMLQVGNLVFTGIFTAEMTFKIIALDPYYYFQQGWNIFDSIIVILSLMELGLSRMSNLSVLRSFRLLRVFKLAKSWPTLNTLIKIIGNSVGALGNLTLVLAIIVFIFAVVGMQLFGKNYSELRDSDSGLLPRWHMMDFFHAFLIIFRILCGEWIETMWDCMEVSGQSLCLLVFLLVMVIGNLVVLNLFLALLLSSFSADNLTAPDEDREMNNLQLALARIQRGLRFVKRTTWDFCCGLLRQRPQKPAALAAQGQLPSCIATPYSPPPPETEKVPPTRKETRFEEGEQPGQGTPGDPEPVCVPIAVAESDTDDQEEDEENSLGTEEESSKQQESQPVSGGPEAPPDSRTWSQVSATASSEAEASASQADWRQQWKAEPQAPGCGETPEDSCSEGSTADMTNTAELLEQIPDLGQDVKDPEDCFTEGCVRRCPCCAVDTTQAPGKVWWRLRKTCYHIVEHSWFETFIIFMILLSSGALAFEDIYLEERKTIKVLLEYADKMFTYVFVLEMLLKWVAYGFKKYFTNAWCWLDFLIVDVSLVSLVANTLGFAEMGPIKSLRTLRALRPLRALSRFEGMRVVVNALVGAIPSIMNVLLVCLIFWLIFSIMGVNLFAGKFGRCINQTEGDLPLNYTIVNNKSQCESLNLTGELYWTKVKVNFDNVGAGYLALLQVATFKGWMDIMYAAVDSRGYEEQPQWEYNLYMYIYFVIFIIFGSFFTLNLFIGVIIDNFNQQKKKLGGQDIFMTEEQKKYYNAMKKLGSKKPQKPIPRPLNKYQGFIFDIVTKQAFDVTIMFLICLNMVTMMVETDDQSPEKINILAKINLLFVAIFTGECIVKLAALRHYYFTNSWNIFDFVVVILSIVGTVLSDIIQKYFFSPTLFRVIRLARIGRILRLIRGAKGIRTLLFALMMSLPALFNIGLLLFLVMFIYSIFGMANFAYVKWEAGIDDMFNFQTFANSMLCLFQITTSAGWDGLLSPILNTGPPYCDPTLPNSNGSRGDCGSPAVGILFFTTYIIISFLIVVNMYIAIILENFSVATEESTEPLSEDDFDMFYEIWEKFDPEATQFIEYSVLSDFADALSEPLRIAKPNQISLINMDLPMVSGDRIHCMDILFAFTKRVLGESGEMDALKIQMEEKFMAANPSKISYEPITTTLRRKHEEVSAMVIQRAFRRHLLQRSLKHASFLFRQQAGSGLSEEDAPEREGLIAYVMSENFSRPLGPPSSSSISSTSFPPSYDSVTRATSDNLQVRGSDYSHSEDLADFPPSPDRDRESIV

Row | SMILES | IC50 (hNav1.5) [nM] | IC50 [1] [µM]
1 | Cc1cc(N2CCN(Cc3cc(F)c(C(=O)NS(=O)(=O)C4CC4)cc3Cl)CC2)ccc1Cl [Compound Z-164] | 6160 | 
2 | C[C@@H]1CN(c2ccc(Cl)c(Cl)c2)CCN1Cc1cc(F)c(C(=O)NS(=O)(=O)C2CC2)cc1Cl [Compound Z-172, (R)-5-Chloro-N-(cyclopropylsulfonyl)-4-((4-(3,4-dichlorophenyl)-2-methylpiperazin-1-yl)methyl)-2-fluorobenzamide] |  | > 10
3 | O=C(NS(=O)(=O)C1CC1)c1cc(Cl)c(CN2CCN(c3ccc(C4CC4)c(Cl)c3)CC2)cc1F [Compound Z-173] |  | > 10
4 | CCc1cc(C(=O)NS(=O)(=O)C2CC2)c(F)cc1CN1CCN(c2ccc(OC(F)(F)F)cc2)CC1 [Compound Z-189, N-(cyclopropylsulfonyl)-5-ethyl-2-fluoro-4-((4-(4-(trifluoromethoxy)phenyl)piperazin-1-yl)methyl)benzamide] |  | > 10
5 | CCc1cc(N2CCN(Cc3cc(F)c(C(=O)NS(=O)(=O)C4CC4)cc3Cl)CC2)ccc1Cl [Compound Z-178] |  | > 10
6 | Cc1ccc(N2CCN(Cc3cc(F)c(C(=O)NS(=O)(=O)C4CC4)cc3Cl)CC2)cc1Cl [Compound Z-177] |  | > 10
